The source made the active and inactive calls. The calls are words filed in the database; no cut-off is given here.
Assays:
[1] = Effect on Wnt signaling pathway in human SW480 cells harbouring TCF/LEF luciferase reporter gene and SP5-Luc reporter gene incubated for 36 to 48 hrs by luminescence assay; type: cell-based
[2] = Induction of chondrogenesis in human MSC assessed as incubated for 6 days by rhodamine B and Nile red staining based imaging analysis; type: functional; details: bmmsc
[3] = tested on: Chondrocyte; assay: Inhibition of IL1-beta induced MMP3 expression levels in human chondrocytes assessed as MMP3 levels incubated for 2hrs followed by IL1-beta stimulation and measured after 24 hrs by qRT-PCR analysis; type: functional; details: time 26.0 hrs
[4] = Induction of chondrogenesis in human MSC assessed as maximum activity at 30 nM incubated for 6 days by rhodamine B and Nile red staining based imaging analysis relative to control; type: functional; details: BMMSC, 144 h, time 6 day
[5] = tested on: Chondrocyte; assay: Inhibition of IL1-beta induced MMP1 expression levels in human chondrocytes assessed as MMP1 levels incubated for 2hrs followed by IL1-beta stimulation and measured after 24 hrs by qRT-PCR analysis; type: functional; details: time 26.0 hrs
[6] = tested on: Chondrocyte; assay: Inhibition of IL1-beta induced MMP-13 expression levels in human chondrocytes assessed as MMP-13 levels incubated for 2hrs followed by IL1-beta stimulation and measured after 24 hrs by qRT-PCR analysis; type: functional; details: time 26.0 hrs
[7] = Inhibition of IL1-beta induced MMP3 expression levels in human chondrocytes assessed as MMP3 levels incubated for 2hrs followed by IL1-beta stimulation and measured after overnight incubation by LANCE assay; type: functional, cell-based; details: Chondrocyte
[8] = Induction of chondrogenesis in human MSC assessed as maximum activity at 1700 nM incubated for 6 days by rhodamine B and Nile red staining based imaging analysis relative to control; type: functional; details: BMMSC, 144 h, time 6 day
[9] = target: Dual specificity tyrosine-phosphorylation-regulated kinase 1A (Homo sapiens, UniProt Q13627); assay: Inhibition of recombinant DYRK1A (unknown origin) using Ser/Thr 18 peptide as substrate incubated for 1 hr in presence of ATP by FRET assay
[10] = Induction of chondrogenesis in human MSC assessed as maximum activity at 100 nM incubated for 6 days by rhodamine B and Nile red staining based imaging analysis relative to control; type: functional; details: BMMSC, 144 h, time 6 day
[11] = Induction of chondrogenesis in human MSC assessed as maximum activity at 900 nM incubated for 6 days by rhodamine B and Nile red staining based imaging analysis relative to control; type: functional; details: BMMSC, 144 h, time 6 day
[12] = Induction of chondrogenesis in human MSC assessed as maximum activity at 61.73 nM incubated for 6 days by rhodamine B and Nile red staining based imaging analysis relative to control; type: functional; details: BMMSC, 144 h, time 6 day
[13] = target: Dual specificity protein kinase CLK3 (Homo sapiens, UniProt P49761); assay: Inhibition of recombinant CLK3 (unknown origin) using Ser/Thr 18 peptide as substrate incubated for 1 hr in presence of ATP by FRET assay
Chain of Dual specificity protein kinase CLK3 (P49761 whole entry): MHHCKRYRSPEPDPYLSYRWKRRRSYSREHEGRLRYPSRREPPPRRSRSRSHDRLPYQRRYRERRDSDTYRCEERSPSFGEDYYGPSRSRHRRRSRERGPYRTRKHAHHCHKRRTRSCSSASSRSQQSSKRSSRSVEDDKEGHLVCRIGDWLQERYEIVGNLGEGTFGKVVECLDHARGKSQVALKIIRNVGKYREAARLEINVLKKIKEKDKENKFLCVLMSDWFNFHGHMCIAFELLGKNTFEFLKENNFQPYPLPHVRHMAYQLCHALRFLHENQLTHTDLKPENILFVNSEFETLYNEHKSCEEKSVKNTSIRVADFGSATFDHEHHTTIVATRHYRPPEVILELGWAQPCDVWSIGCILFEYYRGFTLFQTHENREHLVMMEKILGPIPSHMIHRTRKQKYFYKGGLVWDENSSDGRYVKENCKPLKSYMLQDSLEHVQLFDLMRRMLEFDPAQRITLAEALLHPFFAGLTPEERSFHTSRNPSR

[14] = Induction of chondrogenesis in human MSC assessed as maximum activity at 2700 nM incubated for 6 days by rhodamine B and Nile red staining based imaging analysis relative to control; type: functional; details: BMMSC, 144 h, time 6 day
[15] = target: Dual specificity protein kinase CLK2 (Homo sapiens, UniProt P49760); assay: Inhibition of recombinant CLK2 (unknown origin) using Ser/Thr 6 peptide as substrate incubated for 1 hr in presence of ATP by FRET assay
Chain of Dual specificity protein kinase CLK2 (P49760 whole entry): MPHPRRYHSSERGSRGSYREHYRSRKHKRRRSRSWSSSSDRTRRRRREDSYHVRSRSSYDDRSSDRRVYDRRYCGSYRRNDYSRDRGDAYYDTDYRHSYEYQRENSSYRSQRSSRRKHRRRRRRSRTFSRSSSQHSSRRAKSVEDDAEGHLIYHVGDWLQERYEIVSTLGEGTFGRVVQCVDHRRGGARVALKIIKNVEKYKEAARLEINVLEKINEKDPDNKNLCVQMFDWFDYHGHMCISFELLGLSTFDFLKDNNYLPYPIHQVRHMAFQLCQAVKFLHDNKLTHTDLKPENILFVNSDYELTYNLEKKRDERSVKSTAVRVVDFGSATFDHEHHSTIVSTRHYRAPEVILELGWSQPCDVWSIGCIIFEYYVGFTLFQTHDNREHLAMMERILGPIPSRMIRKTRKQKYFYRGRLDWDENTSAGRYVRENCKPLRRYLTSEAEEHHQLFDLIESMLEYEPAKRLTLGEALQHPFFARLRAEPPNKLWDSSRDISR

[16] = Induction of chondrogenesis in human MSC assessed as maximum activity at 185.19 nM incubated for 6 days by rhodamine B and Nile red staining based imaging analysis relative to control; type: functional; details: BMMSC, 144 h, time 6 day
[17] = Induction of chondrogenesis in human MSC assessed as maximum activity at 5000 nM incubated for 6 days by rhodamine B and Nile red staining based imaging analysis relative to control; type: functional; details: BMMSC, 144 h, time 6 day

Structure (SMILES) | EC50 [1] | EC50 [2] | Activity [3] | Activity [5] | EC50 [7] | EC50 [9] | other results
O=C1CCc2cccc(c2)-c2cncc(c2)NC(=O)c2n[nH]c3ccc(cc23)-c2cncc(c2)CN1 | > 10000 nM | 30 nM | inactive | inactive | 10 nM |  | Emax at 0.03 µM [4]: 69.4%; Activity [6]: inactive
c1cc2cc(c1)-c1cncc3[nH]c(nc13)-c1n[nH]c3ccc(cc13)-c1cncc(c1)CNC2 | 41.8 nM | 200 nM |  |  |  |  | Emax at 1.7 µM [8]: 588%
Cc1n[nH]c2ccc(-c3cncc(OC[C@H](N)Cc4ccccc4)n3)cc12 | 256 nM | 30 nM | inactive | inactive |  | 4 nM | Emax at 0.1 µM [10]: 52.1%; Activity [6]: inactive
Fc1ccc(-c2nnc(-c3n[nH]cc3/C=C/c3cccnc3)o2)cc1 | 1510 nM |  | inactive |  | 3000 nM | 15 nM | Activity [6]: inactive; Emax at 0.9 µM [11]: 23.4%
COc1cncc(-c2ccc3[nH]nc(-c4nc5c(-c6cccc(F)c6)cncc5[nH]4)c3n2)c1 |  | 20.6 nM |  |  |  | 40 nM | Emax at 0.06173 µM [12]: 55.5%
COc1cncc(C(=O)Nc2c[nH]nc2C(=O)Nc2ccc(N3CCC(F)(F)C3)nc2)c1 | 5.7 nM | 300 nM |  |  | 2.2 nM | 14 nM | EC50 [13]: > 10000 nM; Emax at 0.9 µM [11]: 124%
CC(C)C(=O)Nc1cncc(-c2ccc3[nH]nc(-c4nc5c(-c6cccnc6)ccnc5[nH]4)c3n2)c1 | > 10000 nM |  |  |  |  | 30 nM | Emax at 0.06173 µM [12]: 26.1%
Cn1cc(-c2cc3c(C(=O)Nc4ccc(CN5CCCC5)cc4)n[nH]c3cc2F)cn1 | 242 nM |  | inactive | inactive | 3000 nM | 1 nM | Emax at 0.1 µM [10]: 27.4%
Fc1cccc(-c2cccc3[nH]c(-c4n[nH]cc4/C=C/c4cncc(CN5CCCC5)c4)nc23)c1 | 82.1 nM | 2700 nM | inactive | inactive | 1.4 nM | 20 nM | Emax at 2.7 µM [14]: 81.7%
Cc1n[nH]c2ccc(-c3cncc(N[C@H]4CCNC[C@@H]4F)n3)cc12 | 84.3 nM |  | inactive | inactive |  | 1 nM | EC50 [15]: 1 nM; Emax at 0.03 µM [4]: 25.6%; EC50 [13]: 424 nM; Activity [6]: inactive
Cc1n[nH]c2cc(F)c(-c3cncc(O[C@H]4CCNC[C@@H]4F)n3)cc12 | 630 nM |  |  | inactive |  | 6 nM | EC50 [15]: 1 nM; EC50 [13]: 1300 nM; Activity [6]: inactive
CCNCc1cncc(-c2ccc3[nH]nc(-c4nc5c(-c6cc(F)cc(NCCN(C)C)c6)nccc5[nH]4)c3n2)c1 | > 10000 nM |  |  |  |  | 12 nM | Emax at 0.06173 µM [12]: 35.6%
COc1cncc(-c2ccc3[nH]nc(-c4nc5c(-c6cccc(F)c6)ccnc5[nH]4)c3n2)c1 |  |  |  |  |  | 51 nM | Emax at 0.06173 µM [12]: 47%
Oc1cncc(-c2ccc3[nH]nc(-c4nc5c(-c6cccc(F)c6)nccc5[nH]4)c3n2)c1 | 460 nM | 6.86 nM |  |  |  | 24 nM | Emax at 0.18519 µM [16]: 56.7%
CCCC(=O)Nc1cncc(-c2ccc3[nH]nc(-c4nc5c(-c6ccncc6)cncc5[nH]4)c3n2)c1 | 999 nM |  |  |  |  | 13 nM | Emax at 0.18519 µM [16]: 31%
CN(C)C(=O)Nc1cncc(-c2cnc3[nH]nc(-c4nc5c(-c6cccc(F)c6)cncc5[nH]4)c3c2)c1 | 10 nM |  |  |  | 40.6 nM | 4 nM | Emax at 0.9 µM [11]: 68.1%
CCC(=O)Nc1cncc(-c2ccc3[nH]nc(-c4nc5c(-c6cccc(F)c6)ccnc5[nH]4)c3n2)c1 | > 10000 nM |  |  |  |  | 36 nM | Emax at 0.06173 µM [12]: 29.3%
O=C(Nc1cccnc1)c1n[nH]c2ccc(-c3cncc(CN4CC5CC(C4)O5)c3)cc12 | 67 nM | 900 nM |  |  | 3000 nM |  | Emax at 0.9 µM [11]: 121%
CN1CCCCN(C)c2nccc3[nH]c(nc23)-c2c[nH]c3ccc(cc23)-c2cncc(c2)C1 | 577 nM | 5000 nM |  |  |  | 2 nM | EC50 [15]: 2 nM; Emax at 5 µM [17]: 231%; EC50 [13]: 12 nM
